Among the data in patent publication US8426437B2, “Pyrroloquinoline derivatives and their use as protein kinases inhibitors” (Pierre Fabre Medicament, priority 2005, dated 2013) are IC50 values, retold here.

pIC50: −log10 of the molar value. Where a name gives a salt, the structure may show the parent alone.

What all share (format): biochemical
The target in one experiment is ALK (Homo sapiens, UniProt Q9UM73). Description: Inhibition of kinase ALK (PLCγ1-GST substrate, anti-phosphotyrosine ELISA). The conditions noted are these: ALK 180 ng/ml, 250 μM ATP, 30 minutes at 30° C. As for the experimental part: Incubation is carried out for 30 minutes at 30° C. with agitation.
The signal is read in luminescent mode using a luminometer.

In the next experiment the target is T1, RET (Homo sapiens, UniProt P07949).
T1 construct: purchased Upstate 14-570MG
Description: Inhibition of RET kinase activity, recombinant RET method (Kinase-Glo). As to conditions: RET 2 μg/ml, poly-EY4 substrate, 20 μM ATP, two hours at 30° C. The method, boiled down: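 Recombinant RET at 2 μg/ml in 20 mM MOPS/NaOH pH 7.0, 1 mM EDTA, 5% glycerol, 0.01% Brij35, 0.1% 2-mercaptoethanol, 1 mg/ml BSA; compounds 10 nM–30 μM final.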
(Kinase-Glo reads ATP consumption through a luciferase reaction.)

Another experiment concerns the target T2, TrkA (Homo sapiens, UniProt P04629).
T2 construct: purchased Upstate 14-571
The experiment in a line: Inhibition of kinase TrkA (Kinase-Glo). The conditions noted are these: TrkA 4 μg/ml, 30 μM ATP, two hours at 30° C. As for the experimental part:
Protein TrkA (Upstate 14-571; batch #25634U) is incubated at a concentration of 4 μg/ml in a buffer containing 8 mM of MOPS/NaOH pH7, 0.2 mM EDTA, 40 mM MgAc (Sigma #229768), 1 mM DTT (Fluka #43816), NaOV 1 mM, 0.01% Triton Tx100, in the presence of 1 mg/ml of peptide substrate poly-EY (Upstate #P0275), and 30 μM of ATP.
The dilution buffer for TrkA is as follows: 20 mM MOPS/NaOH pH7, 1 mM EDTA, 5% glycerol, 0.01% Brij35, 0.1% 2-mercapto, 1 mg/ml BSA.
(§1) The compound to be tested is first added to the enzyme to give a reaction volume of 50 μl. The dilution of the compounds of the invention is distributed so as to obtain a scale of final concentrations between 10 nM and 30 μM.
(§2) After incubation of the reaction mixture for two hours at 30° C., the level of ATP that remains is assayed using the Kinase-Glo Luminescent Kinase Assay (Promega #V6712) according to the conditions recommended by the supplier. The luminescence induced is read in a plate reader (Envision-Perkin Elmer).

Another experiment deals with T3, TrkB (Homo sapiens, UniProt Q16620).
T3 construct: purchased Upstate 14-507
Description: Inhibition of kinase TrkB (Kinase-Glo). As to conditions: TrkB 4 μg/ml, 40 μM ATP, two hours at 30° C. As for the experimental part:
Protein TrkB (Upstate 14-507; batch #25578U) is incubated at a concentration of 4 μg/ml in a buffer containing 8 mM of MOPS/NaOH pH7, 0.2 mM EDTA, 40 mM MgAc (Sigma #229768), 1 mM DTT (Fluka #43816), NaOV 1 mM, 25 mM 2-glycerolphosphate (Sigma #G9891), in the presence of 2.5 mg/ml of peptide substrate poly-EY (Upstate #P0275), and 40 μM of ATP.
The dilution buffer for TrkB is as follows: 20 mM MOPS/NaOH pH7, 1 mM EDTA, 5% glycerol, 0.01% Brij35, 0.1% 2-mercapto, 1 mg/ml BSA.
as §1, §2

Another experiment concerns the target T4, PIM-1 (Homo sapiens, UniProt P11309).
T4 construct: purchased Upstate 14-573
The experiment in a line: Inhibition of kinase PIM-1 (Kinase-Glo). As to conditions: PIM-1 0.625 μg/ml, 10 μM ATP, forty minutes at 30° C. Summed up: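 PIM-1 (0.625 μg/ml) in MOPS/NaOH pH 7 with Mg acetate was run with 70 μM S6 kinase/Rsk2 peptide and 10 μM ATP, with compound at 10 nM–30 μM final.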

T1 sequence (P07949 29-1114): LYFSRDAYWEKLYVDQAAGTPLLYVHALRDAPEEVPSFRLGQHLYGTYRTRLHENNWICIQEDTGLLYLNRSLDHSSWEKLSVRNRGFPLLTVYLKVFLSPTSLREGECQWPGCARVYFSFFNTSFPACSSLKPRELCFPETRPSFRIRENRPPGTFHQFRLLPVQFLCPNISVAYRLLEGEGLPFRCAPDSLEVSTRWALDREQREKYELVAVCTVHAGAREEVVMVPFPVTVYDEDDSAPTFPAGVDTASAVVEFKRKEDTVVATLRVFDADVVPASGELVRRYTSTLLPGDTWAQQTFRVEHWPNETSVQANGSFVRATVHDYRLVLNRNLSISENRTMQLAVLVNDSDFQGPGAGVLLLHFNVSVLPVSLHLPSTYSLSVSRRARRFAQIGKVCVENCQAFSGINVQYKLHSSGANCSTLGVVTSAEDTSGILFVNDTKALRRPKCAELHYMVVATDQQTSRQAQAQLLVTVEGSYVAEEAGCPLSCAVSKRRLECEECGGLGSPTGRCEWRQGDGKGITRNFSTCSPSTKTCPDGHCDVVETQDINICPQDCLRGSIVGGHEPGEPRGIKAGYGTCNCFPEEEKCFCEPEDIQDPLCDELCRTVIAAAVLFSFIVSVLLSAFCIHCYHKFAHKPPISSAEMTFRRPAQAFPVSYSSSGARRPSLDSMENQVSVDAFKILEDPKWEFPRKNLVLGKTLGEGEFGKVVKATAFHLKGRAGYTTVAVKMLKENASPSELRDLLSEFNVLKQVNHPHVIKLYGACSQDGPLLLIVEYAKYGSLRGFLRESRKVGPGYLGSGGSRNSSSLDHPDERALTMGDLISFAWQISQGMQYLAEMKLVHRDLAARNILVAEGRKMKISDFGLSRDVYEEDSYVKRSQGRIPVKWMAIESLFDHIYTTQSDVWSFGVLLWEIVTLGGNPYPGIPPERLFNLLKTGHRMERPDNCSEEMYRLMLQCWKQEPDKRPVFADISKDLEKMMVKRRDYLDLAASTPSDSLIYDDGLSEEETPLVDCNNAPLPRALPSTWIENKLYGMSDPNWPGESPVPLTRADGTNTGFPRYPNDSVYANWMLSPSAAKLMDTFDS
T3 sequence (Q16620 32-822): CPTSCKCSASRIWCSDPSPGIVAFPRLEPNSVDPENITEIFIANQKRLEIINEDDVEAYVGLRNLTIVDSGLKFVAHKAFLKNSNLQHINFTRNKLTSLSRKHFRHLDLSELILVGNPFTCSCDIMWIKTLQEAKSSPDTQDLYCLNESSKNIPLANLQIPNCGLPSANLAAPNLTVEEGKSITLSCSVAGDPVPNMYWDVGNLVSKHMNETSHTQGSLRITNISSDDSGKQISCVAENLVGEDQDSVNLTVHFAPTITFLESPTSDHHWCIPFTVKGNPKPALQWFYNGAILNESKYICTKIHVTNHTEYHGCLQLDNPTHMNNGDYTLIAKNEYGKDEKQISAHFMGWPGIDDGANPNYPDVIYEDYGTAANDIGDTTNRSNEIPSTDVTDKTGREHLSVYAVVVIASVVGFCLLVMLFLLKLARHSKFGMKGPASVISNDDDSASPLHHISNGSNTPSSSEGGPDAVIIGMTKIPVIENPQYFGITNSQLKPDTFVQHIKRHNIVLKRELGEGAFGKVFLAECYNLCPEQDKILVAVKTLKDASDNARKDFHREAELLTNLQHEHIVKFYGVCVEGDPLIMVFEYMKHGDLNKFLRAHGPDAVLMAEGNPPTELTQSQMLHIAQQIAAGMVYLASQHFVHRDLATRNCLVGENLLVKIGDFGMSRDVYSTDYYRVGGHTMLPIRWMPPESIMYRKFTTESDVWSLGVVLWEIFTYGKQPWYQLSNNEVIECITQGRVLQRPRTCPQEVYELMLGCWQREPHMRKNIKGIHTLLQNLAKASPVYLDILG
Sequence of ALK (Q9UM73 19-1620, species assumed): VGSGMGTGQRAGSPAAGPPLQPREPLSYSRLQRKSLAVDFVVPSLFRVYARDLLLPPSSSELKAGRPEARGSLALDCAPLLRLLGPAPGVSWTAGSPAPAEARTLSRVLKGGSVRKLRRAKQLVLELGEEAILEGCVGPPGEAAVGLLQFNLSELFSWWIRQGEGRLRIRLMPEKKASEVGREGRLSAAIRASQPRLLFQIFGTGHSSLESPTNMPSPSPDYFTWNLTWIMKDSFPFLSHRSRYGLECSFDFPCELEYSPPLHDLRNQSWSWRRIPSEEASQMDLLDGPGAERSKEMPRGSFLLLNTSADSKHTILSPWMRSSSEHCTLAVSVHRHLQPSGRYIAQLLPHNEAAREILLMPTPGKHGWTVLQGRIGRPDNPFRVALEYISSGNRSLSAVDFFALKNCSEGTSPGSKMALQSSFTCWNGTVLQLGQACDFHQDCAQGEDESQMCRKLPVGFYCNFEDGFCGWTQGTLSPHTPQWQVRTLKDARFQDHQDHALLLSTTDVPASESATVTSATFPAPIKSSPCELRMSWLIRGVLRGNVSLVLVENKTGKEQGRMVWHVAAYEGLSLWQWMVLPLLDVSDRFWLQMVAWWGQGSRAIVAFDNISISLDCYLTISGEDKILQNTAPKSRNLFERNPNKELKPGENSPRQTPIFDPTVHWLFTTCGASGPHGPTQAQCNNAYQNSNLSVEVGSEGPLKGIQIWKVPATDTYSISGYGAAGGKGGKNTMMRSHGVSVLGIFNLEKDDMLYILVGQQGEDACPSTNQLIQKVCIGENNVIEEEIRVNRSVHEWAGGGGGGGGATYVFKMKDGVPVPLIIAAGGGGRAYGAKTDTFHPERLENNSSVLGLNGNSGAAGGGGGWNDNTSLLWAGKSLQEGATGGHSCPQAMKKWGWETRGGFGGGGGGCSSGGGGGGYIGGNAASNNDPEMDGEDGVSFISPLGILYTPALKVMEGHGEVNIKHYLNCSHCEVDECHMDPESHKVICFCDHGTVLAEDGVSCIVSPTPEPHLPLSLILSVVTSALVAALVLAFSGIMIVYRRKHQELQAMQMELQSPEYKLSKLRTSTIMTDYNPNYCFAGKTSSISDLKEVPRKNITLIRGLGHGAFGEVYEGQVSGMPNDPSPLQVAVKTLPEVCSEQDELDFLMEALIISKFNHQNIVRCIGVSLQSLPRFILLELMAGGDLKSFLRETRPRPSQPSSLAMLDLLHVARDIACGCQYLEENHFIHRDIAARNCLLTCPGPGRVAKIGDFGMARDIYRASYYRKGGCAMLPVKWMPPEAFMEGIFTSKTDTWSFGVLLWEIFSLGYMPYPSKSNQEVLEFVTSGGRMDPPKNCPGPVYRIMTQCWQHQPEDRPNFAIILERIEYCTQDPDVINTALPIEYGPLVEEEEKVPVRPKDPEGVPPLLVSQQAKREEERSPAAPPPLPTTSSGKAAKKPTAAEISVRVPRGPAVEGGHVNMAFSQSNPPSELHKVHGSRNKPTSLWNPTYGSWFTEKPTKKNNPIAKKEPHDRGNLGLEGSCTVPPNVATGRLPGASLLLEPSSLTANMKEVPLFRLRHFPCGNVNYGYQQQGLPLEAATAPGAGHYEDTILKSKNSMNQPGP
T4 sequence (P11309 whole entry): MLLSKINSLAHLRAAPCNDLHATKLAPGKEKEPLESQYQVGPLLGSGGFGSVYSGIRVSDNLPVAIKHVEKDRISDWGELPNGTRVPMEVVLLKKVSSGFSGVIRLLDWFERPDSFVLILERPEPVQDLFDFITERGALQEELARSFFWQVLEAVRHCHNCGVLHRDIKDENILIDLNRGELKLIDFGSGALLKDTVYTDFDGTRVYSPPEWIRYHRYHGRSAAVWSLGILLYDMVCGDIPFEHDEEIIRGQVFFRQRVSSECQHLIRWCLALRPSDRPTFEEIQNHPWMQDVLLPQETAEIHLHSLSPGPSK
T2 sequence (P04629 33-796): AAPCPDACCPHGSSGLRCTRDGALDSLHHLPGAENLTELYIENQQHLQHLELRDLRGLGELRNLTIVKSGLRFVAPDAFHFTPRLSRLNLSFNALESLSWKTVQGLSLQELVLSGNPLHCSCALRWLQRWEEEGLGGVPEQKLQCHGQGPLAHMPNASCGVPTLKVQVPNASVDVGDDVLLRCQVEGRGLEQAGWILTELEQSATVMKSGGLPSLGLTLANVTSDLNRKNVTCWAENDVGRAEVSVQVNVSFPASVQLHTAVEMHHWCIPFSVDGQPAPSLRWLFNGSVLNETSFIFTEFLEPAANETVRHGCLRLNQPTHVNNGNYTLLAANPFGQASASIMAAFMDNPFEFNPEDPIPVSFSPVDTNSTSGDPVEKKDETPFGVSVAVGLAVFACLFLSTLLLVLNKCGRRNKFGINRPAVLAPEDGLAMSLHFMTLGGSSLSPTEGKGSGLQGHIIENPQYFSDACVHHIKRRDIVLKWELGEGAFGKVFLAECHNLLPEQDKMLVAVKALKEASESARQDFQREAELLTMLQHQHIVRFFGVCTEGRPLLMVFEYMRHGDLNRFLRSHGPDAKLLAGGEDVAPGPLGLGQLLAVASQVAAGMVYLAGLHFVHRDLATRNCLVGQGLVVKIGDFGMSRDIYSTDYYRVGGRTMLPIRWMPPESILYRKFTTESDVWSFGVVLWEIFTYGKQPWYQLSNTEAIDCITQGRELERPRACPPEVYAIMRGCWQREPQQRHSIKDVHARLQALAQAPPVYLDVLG

On to `CCOC(=O)c1c[nH]c2c(=O)[nH]c3ccc(S(=O)(=O)NC4CN5CCC4CC5)cc3c12` (stereo not drawn) [Compound 94, 8-(1-Azabicyclo[2.2.2]oct-3-ylsulfamoyl)-4-oxo-4,5-dihydro-3H-pyrrolo[2,3-c]quinoline-1-ethyl carboxylate], for which the negative-log IC50 (pIC50) on ALK and on RET was 6.00 to 7.00 each time.
`CCOC(=O)c1c[nH]c2c(=O)[nH]c3ccc(S(=O)(=O)NC4CC4)cc3c12` [Compound 123, 8-Cyclopropylsulfamoyl-4-oxo-4,5-dihydro-3H-pyrrolo[2,3-c]quinoline-1-ethyl carboxylate]: the results for the negative logarithm of the IC50 (pIC50) on ALK and on RET were 5.00 to 6.00 and 6.00 to 7.00, respectively.
For `CCCOC(=O)c1c[nH]c2c(=O)[nH]c3ccc(S(=O)(=O)N(C)C4CN(C(c5ccccc5)c5ccccc5)C4)cc3c12` [Compound 130, 8-[(1-Benzhydryl-azetidin-3-yl)-methyl-sulfamoyl]-4-oxo-4,5-dihydro-3H-pyrrolo[2,3-c]quinoline-1-propyl carboxylate], the pIC50 against ALK and on RET was 6.00 to 7.00 throughout.
As to `CCCOC(=O)c1c[nH]c2c(=O)[nH]c3ccc(S(=O)(=O)N(CC(C)(C)NC)C4CC4)cc3c12` [Compound 141, 8-[Cyclopropyl-(2-methyl-2-methylamino-propyl)-sulfamoyl]-4-oxo-4,5-dihydro-3H-pyrrolo[2,3-c]quinoline-1-propyl carboxylate hydrochloride], the negative logarithm of the IC50 (pIC50) against ALK and at RET was 6.00 to 7.00 in each case.
`CCCOC(=O)c1c[nH]c2c(=O)[nH]c3ccc(S(=O)(=O)N(C[C@@H]4CCCN4)C4CC4)cc3c12` [Compound 144, (S)-8-(Cyclopropyl-pyrrolidin-2-ylmethyl-sulfamoyl)-4-oxo-4,5-dihydro-3H-pyrrolo[2,3-c]quinoline-1-propyl carboxylate hydrochloride]: the negative-log IC50 (pIC50) was 6.00 to 7.00 on ALK and over 7.00 on RET.
Consider `CCOC(=O)c1c[nH]c2c(=O)[nH]c3ccc(-c4cccc(O)c4)cc3c12` [Compound 237, 8-(3-Hydroxy-phenyl)-4-oxo-4,5-dihydro-3H-pyrrolo[2,3-c]quinoline-1-ethyl carboxylate], for which the negative logarithm of the IC50 (pIC50) against TrkA is 5.00 to 6.00; on TrkB, 6.00 to 7.00; at RET, 6.00 to 7.00; at PIM-1, 5.00 to 6.00.
On to `CCOC(=O)c1c[nH]c2c(=O)[nH]c3ccc(-c4cccc(CO)c4)cc3c12` [Compound 240, 8-(3-Hydroxymethyl-phenyl)-4-oxo-4,5-dihydro-3H-pyrrolo[2,3-c]quinoline-1-ethyl carboxylate], for which the negative logarithm of the IC50 (pIC50) was 5.00 to 6.00 on TrkA, 5.00 to 6.00 against TrkB, 6.00 to 7.00 on RET and 5.00 to 6.00 at PIM-1.
In the case of `CCOC(=O)c1c[nH]c2c(=O)[nH]c3ccc(-c4cccc(CN(C)C)c4)cc3c12` [Compound 242, 8-(3-Dimethylaminomethyl-phenyl)-4-oxo-4,5-dihydro-3H-pyrrolo[2,3-c]quinoline-1-ethyl carboxylate], the pIC50 against TrkA was 4.00 to 5.00; at TrkB, 4.00 to 5.00; at RET it was 6.00 to 7.00; against PIM-1, 5.00 to 6.00.
Take `CCNc1nccc(-c2ccc3[nH]c(=O)c4[nH]cc(C(=O)OCC)c4c3c2)n1` [Compound 264, 8-(2-Ethylamino-pyrimidin-4-yl)-4-oxo-4,5-dihydro-3H-pyrrolo[2,3-c]quinoline-1-ethyl carboxylate]: the pIC50 against TrkA was 4.00 to 5.00; on TrkB, 4.00 to 5.00; at RET, 6.00 to 7.00; at PIM-1 it was 5.00 to 6.00.
On to `CCOC(=O)c1c[nH]c2c(=O)[nH]c3ccc(-c4cc[nH]n4)cc3c12` [Compound 282, 4-Oxo-8-(1H-pyrazol-3-yl)-4,5-dihydro-3H-pyrrolo[2,3-c]quinoline-1-ethyl carboxylate], for which the pIC50 was 4.00 to 5.00 against TrkA, 4.00 to 5.00 at TrkB, 6.00 to 7.00 at RET and 4.00 to 5.00 against PIM-1.

By pIC50 is commonly meant −log10 of the IC50, conventionally taken in molar units.
